Measured values from PubChem BioAssay (NCI).
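A five-concentration, 48-hour dose response in 96-well plates underlies each endpoint, interpolated linearly between surrounding concentrations. Definition used: TGI = concentration required for complete inhibition of growth.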

Columns and labels:
Test in all cases: NCI-60 cell line screen, 48 h
SF-539 CNS = system: SF-539 CNS
TK-10 renal = system: TK-10 renal
HL-60(TB) leukemia = system: HL-60(TB) leukemia
SK-OV-3 ovarian = system: SK-OV-3 ovarian
OVCAR-8 ovarian = system: OVCAR-8 ovarian
DMS 114 small cell lung = system: DMS 114 small cell lung
KM12 colon = system: KM12 colon
SNB-78 CNS = system: SNB-78 CNS
SNB-75 CNS = system: SNB-75 CNS
MALME-3M melanoma = system: MALME-3M melanoma
786-0 renal = system: 786-0 renal
EKVX NSCLC = system: EKVX NSCLC
LXFL 529 NSCLC = system: LXFL 529 NSCLC
ACHN renal = system: ACHN renal
RPMI-8226 leukemia = system: RPMI-8226 leukemia
U251 CNS = system: U251 CNS
CCRF-CEM leukemia = system: CCRF-CEM leukemia
HCT-116 colon = system: HCT-116 colon
OVCAR-3 ovarian = system: OVCAR-3 ovarian
NCI-H522 lung = system: NCI-H522 lung
NCI-H460 lung = system: NCI-H460 lung
HT29 colon = system: HT29 colon
A549 NSCLC = system: A549 NSCLC
NCI-H23 lung = system: NCI-H23 lung
UO-31 renal = system: UO-31 renal
COLO 205 colon = system: COLO 205 colon
UACC-62 melanoma = system: UACC-62 melanoma
HOP-62 NSCLC = system: HOP-62 NSCLC
UACC-257 melanoma = system: UACC-257 melanoma
K-562 leukemia = system: K-562 leukemia
SNB-19 CNS = system: SNB-19 CNS
M14 melanoma = system: M14 melanoma
DLD-1 colon = system: DLD-1 colon
MOLT-4 leukemia = system: MOLT-4 leukemia
SK-MEL-28 melanoma = system: SK-MEL-28 melanoma
A498 renal = system: A498 renal
KM20L2 colon = system: KM20L2 colon
XF 498 CNS = system: XF 498 CNS
HCC-2998 colon = system: HCC-2998 colon
LOX IMVI melanoma = system: LOX IMVI melanoma
M19-MEL melanoma = system: M19-MEL melanoma
SW-620 colon = system: SW-620 colon
OVCAR-5 ovarian = system: OVCAR-5 ovarian
DMS 273 small cell lung = system: DMS 273 small cell lung
HOP-92 NSCLC = system: HOP-92 NSCLC
IGROV1 ovarian = system: IGROV1 ovarian
RXF 393 renal = system: RXF 393 renal
SK-MEL-2 melanoma = system: SK-MEL-2 melanoma
OVCAR-4 ovarian = system: OVCAR-4 ovarian
SK-MEL-5 melanoma = system: SK-MEL-5 melanoma
SN12C renal = system: SN12C renal
CAKI-1 renal = system: CAKI-1 renal
HCT-15 colon = system: HCT-15 colon
HOP-18 NSCLC = system: HOP-18 NSCLC
SF-295 CNS = system: SF-295 CNS
NCI-H226 lung = system: NCI-H226 lung
SF-268 CNS = system: SF-268 CNS
SR leukemia = system: SR leukemia

Measured: TGI

COc1cc2c(cc1OC)[C@]1(O)C(=O)c3ccc4c(c3O[C@@H]1CO2)C[C@H](C(C)(C)O)O4
not listed: OVCAR-4 ovarian | SK-MEL-5 melanoma | SN12C renal | CAKI-1 renal | HCT-15 colon | HOP-18 NSCLC | SF-295 CNS | NCI-H226 lung | SF-268 CNS | SR leukemia
> 100 µM: all other assays above

CP(=O)(CCSc1ccccc1)c1ccccc1 (configuration not stated)
not listed: KM12 colon | NCI-H522 lung | OVCAR-5 ovarian | SK-MEL-2 melanoma
> 100 µM: all other assays above
